Experimental data: patent US20100190710A1, “IL-23 RECEPTOR ANTAGONISTS AND USES THEREOF” (Valorisation HSJ, Societe en Commandite, priority 2007, published 2010)
Peptide text beside a SMILES is read from it.

How the values were obtained:
[1] = system: PMA-induced dermatitis (ear); test: PMA-induced dermatitis, intraperitoneal injection; assay type: in vivo, CD-1 mice; conditions: intraperitoneal injection (0.1-1 mg/kg/day)
Experimental: FIG. 12 is a series of images and graphs showing the effect of intraperitoneal injection of the 2309 peptide on PMA-induced dermatitis. On day 1, 10 μl of a 0.01% solution of PMA (v/v in acetone) was applied on the external and internal surfaces of the left ear of CD-1 mice (images in left column). Twenty-four hours later, different doses of the 2309 peptide were injected intraperitoneally (0.1 mg/kg/day; 0.5 mg/kg/day; 1 mg/kg/day bid; n=4 for each group treatment). Animals were sacrificed on day 4 (6 hours after the last 2309 injection). The weight (right column, top graph) and thickness (right column, bottom graph) of all ear punches were then determined and the peptide-treated ears with PMA were compared to PMA-only ears.

PMA-induced ear edema = test: PMA-induced ear edema, enteral (oral) administration; assay type: in vivo, rats; conditions: 20 mg/kg administered orally
Experimental: FIGS. 13A and 13B are graphs showing the effect of peptides APG-2305 (FIG. 13A) and APG-2309 (FIG. 13B) on PMA-induced inflammation. Intraperitoneal administration is abreviated “i.p.” and oral administration is abreviated “p.o.” Peptides APG-2305 and APG-2309 were also given by enteral administration to rats to verify their oral availability. The peptides at various concentrations were injected (twice a day; 200 μl) into the stomach with a gavage needle (Number 20) starting at day 2 of PMA treatment. On day 4 the total peptide dose was given as a bolus and animals were sacrificed 4-6 hours later. […] Scrambled peptide of APG-2305 (5 mg/kg/day) and intraperitoneal APG-2305 served as negative and positive controls respectively. APG-2309 was also injected enterally but inhibit PMA-induced ear edema only slightly at 20 mg/kg administered orally (FIG. 13B). APG-2309 is more hydrophobic than APG-2305.

CSCC[C@@H](N)C(=O)N[C@H](CCC(=O)O)C(=O)N[C@H](CCC(=O)O)C(=O)N[C@H](CO)C(=O)N[C@H](CCCCN)C(=O)N[C@H](CCC(N)=O)C(=O)N[C@H](CC(C)C)C(=O)N[C@H](CCC(N)=O)C(=O)N[C@H](CC(C)C)C(=O)O [Peptide 2309, MEESKQLQL] (HELM PEPTIDE1{[dM].[dE].[dE].[dS].[dK].[dQ].[dL].[dQ].[dL]}$$$$V2.0; N-terminus and C-terminus assumed)
redness and ear weight [1]: able to treat PMA-induced dermatitis as evidenced by a decrease in redness and ear weight
PMA-induced ear edema (PMA-induced ear edema): only slightly
